Assay results reported in US20250213707A1, “COMPOUND FOR INCREASING EFFICACY OF ONCOLYTIC VIRUSES” (ABLEVIA BIOTECH GMBH, priority 2022, published 2025).

Assays:
Type in all cases: binding
mAb E10B10 = experiment: Fine epitope mapping of mAb E10B10 with 1068 circular peptides from SRCR-1 to -3 of mouse CD163; settings: circular peptides of 7, 10 and 13 amino acids from mouse CD163
From the text: The epitope of this antibody was fine mapped using circular peptide arrays, whereby the peptides were derived from mouse CD163.

[1] = system: IgG from human donors (anti-AAV antibodies); experiment: Screen for anti-AAV antibodies in human sera, 2452 linear 15-amino-acid AAV peptides on microarrays (Table 1); parameters: key to group I: X: the deduplicated aggregate of the respective top 10 peptide hits for each donor was compiled and designated as group I; key to group II: X: the deduplicated aggregate of the respective top 25 peptide hits for each donor was compiled and designated as group II; key to group III: X: the deduplicated aggregate of the respective top 50 peptide hits for each donor was compiled and designated as group III; settings: human donor IgG binding to linear 15-amino-acid AAV peptides on microarray, fluorescence; for group I: membership in deduplicated aggregate of top 10 peptide hits for each donor; for group II: membership in deduplicated aggregate of top 25 peptide hits for each donor; for group III: membership in deduplicated aggregate of top 50 peptide hits for each donor
Outline: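 Peptide hits were grouped I to IV by pooling each donor's top 10, 25, 50 or 250 background-corrected fluorescence signals, after deduplication. Signals came from donor IgG, purified on protein G, bound to arrayed 15-residue linear peptides (2452 total) spanning 16 AAV sequences.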

mAb Mac2-158 = experiment: Epitope mapping of mAb Mac2-158 with circular peptides of human CD163 SRCR domain 1; settings: circular peptides aligned to SRCR domain 1 of human CD163
From the text: As a result, the following sequences (as well as motifs derived therefrom) are highly suitable epitopes anti-CD163 antibodies and fragments thereof used as SADC biopolymer scaffold: […]

[2] = system: IgG from human donors (anti-measles virus antibodies); parameters: key: X: The peptides belonging to the Top 10% hits

Substance	rank by relative signal strength (top binding peptides of mAb E10B10) (mAb E10B10)	other results
371 (VTNAPGE) [compound 371]	04	–
375 (SGSASAVTNAPGE) [compound 375]	08	–
377 (SAVTNAPGEM) [compound 377]	10	–
370 (VTNAPGEMKK) [compound 370]	03	–
373 (AVTNAPGEMKKEL) [compound 373]	06	–
368 (VTNAPGEMKKELR) [compound 368]	01	–
379 (SAVTNAPGEMKKE) [compound 379]	12	–
378 (ASAVTNAPGE) [compound 378]	11	–
372 (GSASAVTNAPGEM) [compound 372]	05	–
369 (ASAVTNAPGEMKK) [compound 369]	02	–
380 (TNAPGEMKKE) [compound 380]	13	–
NYNKSVNVDFTVDT (REGION 1..14: note = peptide derived from viral capsid protein) [SEQ ID NO: 1903]	–	group I [1]: X; group II [1]: X; group III [1]: X; peptide number among the top 20 peptide hits of mAb Mac2-158 (mAb Mac2-158): 19; top 10% [2]: X
374 (SASAVTNAPGEMK) [compound 374]	07	–
376 (AVTNAPGEMK) [compound 376]	09	–
SESVPDPQPIGEPP (REGION 1..14: note = peptide derived from viral capsid protein) [SEQ ID NO: 1899]	–	group I [1]: X; group II [1]: X; group III [1]: X; peptide number among the top 20 peptide hits of mAb Mac2-158 (mAb Mac2-158): 09; top 10% [2]: X
